How the values were obtained:
[1] = molecular target: Trifunctional purine biosynthetic protein adenosine-3 (Mus musculus) (UniProt Q64737); experiment: Inhibition activity against Glycinamide ribonucleotide transformylase (GAR-TFase) from L cell
[2] = molecular target: ATIC (Sus scrofa); experiment: Inhibition activity against AICAR formyltransferase from hog liver

Trifunctional purine biosynthetic protein adenosine-3 (Mus musculus), sequence (Q64737 whole entry, looked up): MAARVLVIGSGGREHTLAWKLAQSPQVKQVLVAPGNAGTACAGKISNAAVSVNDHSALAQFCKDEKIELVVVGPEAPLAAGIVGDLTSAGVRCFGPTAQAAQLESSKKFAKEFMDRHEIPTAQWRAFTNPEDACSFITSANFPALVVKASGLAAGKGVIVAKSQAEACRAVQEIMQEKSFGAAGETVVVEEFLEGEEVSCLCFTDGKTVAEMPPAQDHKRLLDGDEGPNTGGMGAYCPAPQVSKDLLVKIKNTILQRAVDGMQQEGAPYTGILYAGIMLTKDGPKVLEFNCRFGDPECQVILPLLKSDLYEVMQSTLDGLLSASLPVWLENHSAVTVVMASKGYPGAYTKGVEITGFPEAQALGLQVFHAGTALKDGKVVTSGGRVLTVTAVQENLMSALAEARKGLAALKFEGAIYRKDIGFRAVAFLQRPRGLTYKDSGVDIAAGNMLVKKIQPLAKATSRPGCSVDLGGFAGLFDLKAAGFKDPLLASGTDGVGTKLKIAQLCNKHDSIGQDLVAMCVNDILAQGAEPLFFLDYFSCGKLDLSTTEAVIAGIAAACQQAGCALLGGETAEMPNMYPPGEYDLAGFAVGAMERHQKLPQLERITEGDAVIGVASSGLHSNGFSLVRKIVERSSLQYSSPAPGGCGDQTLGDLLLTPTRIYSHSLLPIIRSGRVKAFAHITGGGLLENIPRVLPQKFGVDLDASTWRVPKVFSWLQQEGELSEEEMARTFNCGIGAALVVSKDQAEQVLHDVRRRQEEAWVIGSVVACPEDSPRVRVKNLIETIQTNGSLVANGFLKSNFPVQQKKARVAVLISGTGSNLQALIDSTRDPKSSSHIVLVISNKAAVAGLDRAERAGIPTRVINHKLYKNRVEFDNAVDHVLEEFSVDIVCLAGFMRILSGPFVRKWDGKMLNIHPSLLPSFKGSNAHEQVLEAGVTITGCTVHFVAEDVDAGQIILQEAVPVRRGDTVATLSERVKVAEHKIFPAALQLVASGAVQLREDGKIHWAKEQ

## CN(CCCc1c(N)nc(N)[nH]c1=O)c1ccc(C(=O)NC(CCC(=O)O)C(=O)O)cc1 (configuration not stated)
[1]
  IC50: 4.3 µM
[2]
  IC50: 68 µM
